The source made the active and inactive calls.
How the values were obtained:
Vero = test: cells; assay type: functional; conditions: Chlorocebus sabaeus
Cytochrome P450 2D6 = Cytochrome P450 2D6 (Homo sapiens, UniProt P10635);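 further: CYP2D6 member of a cytochrome P450 panel assay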
Cytochrome P450 2C9 = Cytochrome P450 2C9 (Homo sapiens, UniProt P11712)
[1] = target: Peroxisome proliferator-activated receptor gamma/Nuclear receptor coactivator 1 (Homo sapiens, UniProt P37231); test: (§1) TR-FRET dose response biochemical High Throughput Screening assay for agonists of the steroid receptor coactivator 1 (SRC-1) recruitment by the peroxisome proliferator-activated receptor gamma (PPAR gamma): non-selective agonists. [Related pubchem assays (depositor defined):AID1300, AID1808, AID504735, AID631]; assay type: protein assay
Peroxisome proliferator-activated receptor gamma/Nuclear receptor coactivator 1, sequence (P37231 whole entry): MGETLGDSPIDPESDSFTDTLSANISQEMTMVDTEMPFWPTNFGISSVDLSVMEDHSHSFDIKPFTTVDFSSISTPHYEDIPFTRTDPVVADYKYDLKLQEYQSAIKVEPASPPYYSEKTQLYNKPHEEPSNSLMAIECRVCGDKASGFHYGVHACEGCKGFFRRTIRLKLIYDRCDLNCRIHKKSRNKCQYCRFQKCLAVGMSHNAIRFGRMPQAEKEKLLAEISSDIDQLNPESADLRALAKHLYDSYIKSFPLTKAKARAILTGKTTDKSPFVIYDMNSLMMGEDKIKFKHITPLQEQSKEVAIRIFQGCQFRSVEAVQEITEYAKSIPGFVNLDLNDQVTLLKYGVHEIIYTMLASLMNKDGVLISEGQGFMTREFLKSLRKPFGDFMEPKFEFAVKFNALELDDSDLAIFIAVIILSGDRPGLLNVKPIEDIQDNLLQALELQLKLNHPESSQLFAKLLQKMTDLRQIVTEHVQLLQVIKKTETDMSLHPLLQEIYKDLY
Peroxisome proliferator-activated receptor gamma/Nuclear receptor coactivator 1, sequence (Q15788 whole entry, further chain): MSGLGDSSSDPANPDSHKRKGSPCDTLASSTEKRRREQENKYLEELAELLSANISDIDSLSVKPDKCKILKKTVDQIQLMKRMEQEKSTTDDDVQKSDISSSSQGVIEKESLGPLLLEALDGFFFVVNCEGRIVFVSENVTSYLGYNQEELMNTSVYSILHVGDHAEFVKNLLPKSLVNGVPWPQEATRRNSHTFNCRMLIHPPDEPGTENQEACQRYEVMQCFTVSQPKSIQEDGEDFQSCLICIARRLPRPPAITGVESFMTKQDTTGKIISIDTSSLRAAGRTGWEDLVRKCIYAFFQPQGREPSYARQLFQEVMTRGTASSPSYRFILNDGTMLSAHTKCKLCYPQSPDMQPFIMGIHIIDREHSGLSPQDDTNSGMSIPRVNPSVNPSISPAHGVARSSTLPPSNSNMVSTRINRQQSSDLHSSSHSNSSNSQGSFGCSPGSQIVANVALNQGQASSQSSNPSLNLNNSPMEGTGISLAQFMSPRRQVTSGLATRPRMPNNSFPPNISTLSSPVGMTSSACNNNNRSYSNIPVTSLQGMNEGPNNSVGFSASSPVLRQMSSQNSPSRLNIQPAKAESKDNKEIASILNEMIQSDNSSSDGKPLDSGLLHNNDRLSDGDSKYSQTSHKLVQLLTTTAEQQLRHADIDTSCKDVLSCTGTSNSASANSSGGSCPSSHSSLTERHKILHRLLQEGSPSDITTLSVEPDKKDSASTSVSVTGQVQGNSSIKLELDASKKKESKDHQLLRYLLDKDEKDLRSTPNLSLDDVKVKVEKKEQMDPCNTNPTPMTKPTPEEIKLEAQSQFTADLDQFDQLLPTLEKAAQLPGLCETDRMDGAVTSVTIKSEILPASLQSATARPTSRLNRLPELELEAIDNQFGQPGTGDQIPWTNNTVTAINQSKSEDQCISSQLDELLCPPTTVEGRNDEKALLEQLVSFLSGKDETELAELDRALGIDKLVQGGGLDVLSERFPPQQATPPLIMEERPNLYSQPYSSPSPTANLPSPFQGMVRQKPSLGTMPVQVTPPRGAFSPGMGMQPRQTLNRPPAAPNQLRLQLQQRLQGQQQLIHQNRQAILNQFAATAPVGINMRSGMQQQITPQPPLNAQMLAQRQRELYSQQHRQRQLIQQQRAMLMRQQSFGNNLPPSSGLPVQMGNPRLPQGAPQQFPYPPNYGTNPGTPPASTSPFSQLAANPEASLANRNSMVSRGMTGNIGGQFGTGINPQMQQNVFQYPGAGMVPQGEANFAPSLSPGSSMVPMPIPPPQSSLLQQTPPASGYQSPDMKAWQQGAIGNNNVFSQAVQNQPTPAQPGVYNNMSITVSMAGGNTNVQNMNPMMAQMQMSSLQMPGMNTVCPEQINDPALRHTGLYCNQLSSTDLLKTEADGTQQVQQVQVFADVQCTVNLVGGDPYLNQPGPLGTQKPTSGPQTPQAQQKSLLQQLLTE

[2] = target: Peroxisome proliferator-activated receptor gamma/Nuclear receptor coactivator 3 (Homo sapiens, UniProt P37231); test: as §1, with “3 (SRC-3)” for “1 (SRC-1)”, “assays: 1301 (Confirmation screen.), 1048 (Primary screen.)]” for “assays (depositor defined):AID1300, AID1808, AID504735, AID631]”; assay type: functional
[3] = target: Peroxisome proliferator-activated receptor gamma/Nuclear receptor coactivator 2 (Homo sapiens, UniProt P37231); test: TR-FRET dose response biochemical High Throughput Screening assay for agonists of the steroid receptor coactivator 2 (SRC-2) recruitment by the peroxisome proliferator-activated receptor gamma (PPAR gamma): non-selective agonists. [Related pubchem assays: 1297, 1032 ]; assay type: functional
Peroxisome proliferator-activated receptor gamma/Nuclear receptor coactivator 2, sequence (P37231 whole entry): as the sequence (P37231 whole entry) above
Peroxisome proliferator-activated receptor gamma/Nuclear receptor coactivator 2, sequence (Q15596 whole entry, further chain): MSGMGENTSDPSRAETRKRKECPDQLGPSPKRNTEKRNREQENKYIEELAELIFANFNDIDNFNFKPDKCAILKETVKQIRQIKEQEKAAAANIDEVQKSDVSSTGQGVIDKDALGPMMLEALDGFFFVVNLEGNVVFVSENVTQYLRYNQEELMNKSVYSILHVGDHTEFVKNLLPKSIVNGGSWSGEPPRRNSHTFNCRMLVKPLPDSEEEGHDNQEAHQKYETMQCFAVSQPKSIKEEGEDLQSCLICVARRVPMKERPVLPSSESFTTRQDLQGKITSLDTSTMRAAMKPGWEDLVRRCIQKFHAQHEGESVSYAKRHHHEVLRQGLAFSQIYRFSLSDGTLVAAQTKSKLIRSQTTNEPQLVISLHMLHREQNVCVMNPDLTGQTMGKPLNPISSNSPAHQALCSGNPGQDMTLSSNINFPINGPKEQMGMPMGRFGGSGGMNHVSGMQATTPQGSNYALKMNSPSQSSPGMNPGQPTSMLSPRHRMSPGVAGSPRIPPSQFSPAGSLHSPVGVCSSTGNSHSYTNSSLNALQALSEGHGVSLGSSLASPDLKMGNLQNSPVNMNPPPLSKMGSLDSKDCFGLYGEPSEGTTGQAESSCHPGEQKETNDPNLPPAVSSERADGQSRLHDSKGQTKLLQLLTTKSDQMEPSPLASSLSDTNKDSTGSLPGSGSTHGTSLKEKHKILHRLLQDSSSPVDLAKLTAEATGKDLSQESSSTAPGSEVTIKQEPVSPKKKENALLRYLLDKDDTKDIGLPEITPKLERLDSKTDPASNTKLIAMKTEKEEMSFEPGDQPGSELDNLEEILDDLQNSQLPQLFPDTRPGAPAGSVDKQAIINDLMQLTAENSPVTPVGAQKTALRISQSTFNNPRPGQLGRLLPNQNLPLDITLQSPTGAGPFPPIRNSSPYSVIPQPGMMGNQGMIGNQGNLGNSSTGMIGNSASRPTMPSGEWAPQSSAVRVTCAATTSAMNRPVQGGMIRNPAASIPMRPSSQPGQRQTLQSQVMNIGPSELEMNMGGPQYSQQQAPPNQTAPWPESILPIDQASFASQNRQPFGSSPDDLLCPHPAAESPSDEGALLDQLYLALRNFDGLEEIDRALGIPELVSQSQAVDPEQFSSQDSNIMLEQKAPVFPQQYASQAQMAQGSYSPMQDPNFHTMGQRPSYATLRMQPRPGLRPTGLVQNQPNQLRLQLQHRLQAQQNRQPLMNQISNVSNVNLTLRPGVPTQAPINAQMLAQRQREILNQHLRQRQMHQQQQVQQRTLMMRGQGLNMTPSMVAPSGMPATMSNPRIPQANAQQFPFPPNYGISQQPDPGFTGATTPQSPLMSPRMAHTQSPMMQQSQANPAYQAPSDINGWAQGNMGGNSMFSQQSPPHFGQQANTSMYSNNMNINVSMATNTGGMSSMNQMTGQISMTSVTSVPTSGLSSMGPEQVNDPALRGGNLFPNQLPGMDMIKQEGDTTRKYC

Troponin, cardiac muscle = Troponin, cardiac muscle (Homo sapiens, UniProt P19429+P45379+P63316); test: Fluorescence-based biochemical high throughput dose response assay for activators of the calcium sensitivity of cardiac Regulated Thin Filaments (RTF). [Related pubchem assays (depositor defined):AID493008, AID493018, AID504382, AID504383]; assay type: protein-complex assay
[4] = Luminescence Cell-Based Dose Retest to Confirm Inhibitors of Cancer Stem Cells. [Related pubchem assays (depositor defined):AID2717, AID2721]; assay type: functional; conditions: Homo sapiens
[5] = target: T1, Microphthalmia-associated transcription factor (Homo sapiens, UniProt O75030); test: reducers of TRPM1 reporter luminescence, concentration series – cell-based, SK-MEL-5, cherry-picked, set 3, MITF inhibitor project, dose response (AID 493073); assay type: functional;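 further: SK-MEL-5 melanoma cells with luciferase driven by the MITF target TRPM1 promoter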
T1 sequence (O75030 whole entry): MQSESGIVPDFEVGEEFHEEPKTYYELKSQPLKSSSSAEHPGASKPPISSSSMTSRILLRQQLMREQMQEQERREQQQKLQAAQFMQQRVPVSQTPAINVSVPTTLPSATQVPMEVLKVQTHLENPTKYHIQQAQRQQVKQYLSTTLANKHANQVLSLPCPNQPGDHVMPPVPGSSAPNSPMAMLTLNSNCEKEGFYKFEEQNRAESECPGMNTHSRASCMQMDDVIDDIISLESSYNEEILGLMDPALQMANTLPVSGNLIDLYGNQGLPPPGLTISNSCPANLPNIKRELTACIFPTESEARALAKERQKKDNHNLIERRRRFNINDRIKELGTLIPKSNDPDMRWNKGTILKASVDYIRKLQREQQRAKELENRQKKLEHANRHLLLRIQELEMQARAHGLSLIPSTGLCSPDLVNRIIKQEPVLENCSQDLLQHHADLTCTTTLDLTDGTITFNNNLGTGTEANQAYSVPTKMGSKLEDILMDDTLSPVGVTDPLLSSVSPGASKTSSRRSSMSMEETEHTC

HEK293 = test: EBV LMP1 TES2 canonical NF-kB signalling blockers – cell-based, HEK293, luciferase, cherry-pick, dose response (AID 588343); assay type: functional; conditions: Homo sapiens

Cytochrome P450 2D6, sequence (P10635 whole entry): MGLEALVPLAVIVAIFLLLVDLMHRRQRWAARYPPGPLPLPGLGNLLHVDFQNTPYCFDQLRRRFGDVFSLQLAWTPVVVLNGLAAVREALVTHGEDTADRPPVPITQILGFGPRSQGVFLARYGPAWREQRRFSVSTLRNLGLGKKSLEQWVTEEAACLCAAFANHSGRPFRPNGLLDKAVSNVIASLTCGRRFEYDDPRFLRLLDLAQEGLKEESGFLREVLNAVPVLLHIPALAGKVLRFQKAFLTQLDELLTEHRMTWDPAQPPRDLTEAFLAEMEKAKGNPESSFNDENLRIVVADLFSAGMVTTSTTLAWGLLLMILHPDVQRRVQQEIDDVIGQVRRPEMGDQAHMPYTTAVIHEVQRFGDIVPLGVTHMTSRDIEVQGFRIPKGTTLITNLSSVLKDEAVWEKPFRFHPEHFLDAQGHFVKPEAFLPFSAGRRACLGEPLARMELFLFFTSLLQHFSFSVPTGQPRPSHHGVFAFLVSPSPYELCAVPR
Cytochrome P450 2C9, sequence (P11712 whole entry): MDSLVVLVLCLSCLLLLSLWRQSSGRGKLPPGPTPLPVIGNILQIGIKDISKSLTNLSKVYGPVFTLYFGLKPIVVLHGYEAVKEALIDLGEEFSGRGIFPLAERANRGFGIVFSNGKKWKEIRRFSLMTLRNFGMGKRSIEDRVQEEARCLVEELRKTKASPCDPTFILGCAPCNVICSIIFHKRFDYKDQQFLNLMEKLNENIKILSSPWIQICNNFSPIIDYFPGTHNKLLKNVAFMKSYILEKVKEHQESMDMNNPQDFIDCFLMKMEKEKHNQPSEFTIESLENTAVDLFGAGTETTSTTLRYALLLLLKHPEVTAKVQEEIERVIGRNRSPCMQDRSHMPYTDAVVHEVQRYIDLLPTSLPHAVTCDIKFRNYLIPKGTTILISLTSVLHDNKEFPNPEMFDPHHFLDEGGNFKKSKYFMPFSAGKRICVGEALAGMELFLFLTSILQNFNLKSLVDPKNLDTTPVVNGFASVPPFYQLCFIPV

SMILES | CC50 (Vero) | EC50 [1] | EC50 [2] | EC50 [3] | other results
COc1ccc(/C=C2/SC(=S)N(CCCC(=O)N3CCN(C)CC3)C2=O)cc1 | > 25 µM (active) |  |  |  | 
CCCCN1CCC(CCC(=O)c2cc(Cl)c(N)cc2OC)CC1 |  |  |  |  | AC50 (Cytochrome P450 2D6): 12.6 µM (inconclusive); AC50 (Cytochrome P450 2C9): inconclusive
CC(=O)N1N=C(c2ccc(Br)cc2)CC1c1cn(C)c2ccccc12 (centres undefined) |  | 18.5 µM (inactive) | > 79.4 µM (not active) | 18.3 µM (not active) | 
CN(Cc1ccccc1)C(=O)c1[nH]cnc1C(=O)NCc1ccccc1 |  |  |  |  | EC50 (Troponin, cardiac muscle): > 71.6 µM (inactive)
Nc1ccccc1-c1nnc(S)s1 |  | 14.9 µM (inactive) | > 79.4 µM (not active) | 15.6 µM (not active) | 
Cc1ccc(C)c(OCC(=O)OCc2csc(CC(=O)Nc3ccccc3C)n2)c1 | > 25 µM (active) |  |  |  | 
Cn1c(=O)cc(SCC(=O)Nc2cccnc2)c2ccccc21 |  | > 79.4 µM (inactive) | > 79.4 µM (not active) | > 79.4 µM (not active) | 
O=C(NCc1ccco1)c1nc(O)c2nnn(Cc3ccccc3Cl)c2n1 | 18.9 µM (active) |  |  |  | AC50 [4]: 2.4 µM (active); AC50 [5]: 14.4 µM (active)
COCCn1c(C)cc(C(=O)COC(=O)C23CC4CC(CC(O)(C4)C2)C3)c1C |  |  |  |  | AC50 (HEK293): 7.37 µM (active)
CCOc1ccc2ccccc2c1CNCCN1CCOCC1 |  |  |  |  | EC50 (Troponin, cardiac muscle): > 71.5 µM (inactive)

— ChEMBL document CHEMBL1201862, “PubChem BioAssay data set” (2004)
